{"source": "patent US20210177751A1", "about": "“HYPOTONIC HYDROGEL FORMULATIONS FOR ENHANCED TRANSPORT OF ACTIVE AGENTS AT MUCOSAL SURFACES” (The Johns Hopkins University, priority 2017, published 2021)", "key": {"[1]": {"test": "ocular tissue distribution in farm pigs (LC-MS)", "assay_type": "in vivo, pig", "conditions": "4 mg/ml in 12% F127, daily for 5 days; tissues 1 h after final dose", "procedure": "(§1) Sunitnib malate was dissolved in 12% F127 at a concentration of 4 mg/ml and dosed topically to pigmented (Dutch belted) rabbits and pigmented pigs (juvenile farm pigs) once per day for a total of 14 days or 5 days, respectively. Dosing in both rabbits and pigs occurred without anesthesia and 50 uL or 50˜100 uL of an eye drop was administered, respectively. However, dosing in pigs occurred while distracted with food. Tissues were collected 6 h after the final dose for rabbits and 1 h after the final dose for pigs. The drug concentrations were measured by LC-MS."}, "C57/B6 mice": {"tested_on": "C57/B6 mice", "test": "laser-induced choroidal neovascularization (CNV) in mice", "assay_type": "in vivo, mouse", "conditions": "topical daily for 7 days", "procedure": "C57/B6 mice where used to test the topical delivery of sunitinib malate (5 uL at 4 mg/mL) and acriflavine (5 uL at 5 mg/mL) in preventing choroidal neovascularization (CNV) in mice after laser induced rupture of Bruch's membrane in three locations. After laser, both drugs either dissolved in 12% F127 or a aqueous vehicle control (saline or water), were dosed daily for 7 days."}, "[2]": {"tested_on": "retinal ganglion cells (RGCs)", "test": "optic nerve crush with once weekly topical dosing", "assay_type": "in vivo, rat (Brown Norway)", "conditions": "Day 22", "procedure": "Pigmented rats (Brown Norway) were dosed topically (5 uL at 4 mg/mL) with sunitinib malate in 12% F127 or in saline once weekly unilaterally. The optic nerve head was exposed and crushed unilaterally on Day 8 and the contralateral eye was used as the control for comparison. 14 days after crushing the nerve (Day 22), the tissues were isolated for qPCR for genes expressed by retinal ganglion cells (RGCs)."}, "[3]": {"test": "ocular tissue distribution in Dutch belted rabbits (LC-MS)", "assay_type": "in vivo, rabbit", "conditions": "4 mg/ml in 12% F127, daily for 14 days; tissues 6 h after final dose", "procedure": "as §1"}, "[4]": {"tested_on": "retinal ganglion cells (RGCs)", "test": "optic nerve crush after 5 daily topical doses, pigmented rats", "assay_type": "in vivo, rat (Brown Norway)", "conditions": "in 12% F127, daily for 5 days before crush; 14 days after crush; pigmented rats (Brown Norway)", "procedure": "Rats were dosed topically with sunitinib malate (5 uL at 4 mg/mL) in 12% F127 daily for 5 days unilaterally. Then, the optic nerve head was exposed and crushed unilaterally and the contralateral eye was used as the control for comparison. 14 days after crushing the nerve (without additional topical dosing), the tissues were isolated for qPCR for genes expressed by retinal ganglion cells (RGCs)."}, "[5]": {"conditions": "dissolved in aqueous vehicle control (saline or water)"}}}
{"compound": "CCN(CC)CCNC(=O)c1c(C)[nH]c(/C=C2\\C(=O)Nc3ccc(F)cc32)c1C", "note": "[sunitinib malate]", "values": [{"measurement": "sunitinib and N-desethyl sunitinib levels in ocular tissues and fluids", "setting": "[1]", "value": "Therapeutically relevant levels of drug were found in the anterior and posterior segments"}, {"measurement": "suppression of choroidal neovascularization", "setting": "C57/B6 mice; dissolved in 12% F127", "value": "efficacious in suppressing neovascularization in the choroid"}, {"measurement": "suppression of choroidal neovascularization", "setting": "C57/B6 mice; [5]", "value": "Only the formulations containing 12% F127 were efficacious"}, {"measurement": "protection of RGCs (qPCR for RGC genes)", "setting": "[2]; in 12% F127, once weekly", "value": "Protection of RGCs was only observed when sunitinib malate was dosed in 12% F127"}, {"measurement": "protection of RGCs (qPCR for RGC genes)", "setting": "[2]; in saline, once weekly", "value": "not when sunitinib malate was dosed in saline"}, {"measurement": "sunitinib and N-desethyl sunitinib levels in ocular tissues and fluids", "setting": "[3]", "value": "Therapeutically relevant levels of drug were found in the anterior and posterior segments"}, {"measurement": "protection of RGCs (qPCR for RGC genes)", "setting": "[4]", "value": "protection of RGCs"}]}
{"compound": "acriflavine", "values": [{"measurement": "suppression of choroidal neovascularization", "setting": "C57/B6 mice; dissolved in 12% F127", "value": "efficacious in suppressing neovascularization in the choroid"}, {"measurement": "suppression of choroidal neovascularization", "setting": "C57/B6 mice; [5]", "value": "Only the formulations containing 12% F127 were efficacious"}]}
